Measured values reported in patent US11969499B2, “Hydrogel delivery of sting immunotherapy for treatment cancer” (WILLIAM MARSH RICE UNIVERSITY, priority 2017, dated 2024).
“Also recorded” adds a separate entry of the source. Where two headings read alike, the source gives them in different places.

Legend:
MOC2-E6E7 tumors = assay: Tumor growth and survival study (Examples 3-4); format: in vivo, C57BL/6 mice
Protocol: Tumor growth and survival study. For tumor experiments, 6-8 week old wild-type C57BL/6 female mice were maintained in a pathogen-free environment for the study. All protocols were in accordance with the guidelines for humane treatment of laboratory animals by the National Institutes of Health, the Animal Welfare Committee and the Center for Laboratory Animal Medicine and Care (CLAMC) at the University of Texas Health Science Center at Houston. Mice were injected with MOC2-E6E7 tumor cells on day 0 into the maxillary oral vestibule (30,000 cells in 30 μL volume), followed by controls or gel injections loaded with or without CDN on day 3 in the same oral cavity location (20 lag CDN per 30 μL injection). Tumor growth was measured using calipers and body weight was taken in all subjects two to three times per week. Photographs were also obtained. Kaplan-Meier survival and tumor growth curve analyses were performed from data obtained. Mice that maintained tumor clearance for 100 days were re-challenged with MOC2-E6E7 tumor cells again at day 105 and monitored similarly. All endpoints in tumor growth curve and survival data are a result of euthanasia due to excessive tumor burden, defined as tumor reaching 12 mm, tumor ulceration, or a weight loss of greater than 20%. The inventors observed no signs of unexpected disease or discomfort in the mice over the course of the experiments.
Statistical methods. Statistical analyses for Kaplan-Meier survival curves were performed using the log-rank/Mantel-Cox test with GraphPad Prism (GraphPad, San Diego, CA). For tumor growth curves, the Wilcoxon rank sum test was used to compare tumor size between STINGel and other groups. No adjustment for multiple testing was made because the study is novel and exploratory. All p values are two-sided and p values less than 0.05 were considered as significant. All statistical analyses were performed using the SAS software (version 9.4, the SAS Institute, Cary, NC).

[1] = system: non-T cell-inflamed head and neck tumors; details: in vivo; cited from earlier work
MOC2-E6E7 cells = assay: In vitro live/dead cell viability in unloaded and CDN-loaded MDP hydrogel; format: cell-based; details: for percent cell viability per mm3 of hydrogel vs no CDN / percent cell viability per mm3 of hydrogel: Day 7; for cytocompatibility of unloaded hydrogel: no CDN, cells in 3-D gel, up to 7 days
Protocol: Preparation of cell—laden hydrogel for in vitro viability. MDP gel formulations with MOC2-E6E7 cells were prepared by diluting a cell suspension of 2,000,000 cells/mL in 2×HBSS with an equal volume of 4×CDN. The resulting suspension was then added to an equal volume of sterile 2 wt. % peptide in 298 mM sucrose and mixed to produce final samples of approximately 35,000 cells per 70 μL of 1 wt. %, 149 mM sucrose gel. Gels were then transferred into 0.4 cm 2 wells of Lab-Tek 16 well glass chamber slides (Thermo Fischer, Rochester, NY), pipetted to produce 70 μL pucks with flat profiles. Samples were allowed to shear recover for 5-10 mM before adding 200 μL cell media on top of each gel. The cell media was changed every 2 days, taking care to not dislodge the hydrogel material.
Cell viability was determined at each desired time point by performing live/dead assays as described below. Live/dead staining solution was prepared in DPBS with 2 μM Calcein AM for live cells (Life Technologies), 4 μM Ethidium homodimer for dead cells (Life Technologies), and 5 μg/mL Hoechst 33342 for nuclei (MP Biomedicals, Solon, OH). […] Cell media was removed and the gels were washed with PBS. Samples were then stained with 100 μL of prepared solution by incubating at RT for 15-30 mM. Following staining, gels were placed in PBS for immediate analysis by confocal microscopy. Gels were analyzed by z-stack imaging (100 μm) using a Nikon A1 Confocal Microscope with 20× air and 40× water objectives (405 nm blue channel laser, 488 nm green channel laser, 561 nm red channel laser). Image processing was done using NIS Elements, and live/dead cell counting was performed using the cell identification tool in Imaris 3D/4D Image Processing software, manually verified with nuclear counts when resolution allowed.

MOC2 tumors = details: multiple CDN injections; cited from earlier work
MOC1 tumors = details: multiple intratumoral injections of CDN alone, cited from earlier work
MOC-2-E6E7 tumors = assay: MOC-2-E6E7 orthotopic murine model of HNSCC, survival (Example 2, FIG. 2E); design: species or system C57BL/6 mice; details: mouse, in vivo
Protocol: MOC-2-E6E7 Orthotopic murine model of HNSCC. 6 week-old male and female C57BL/6 mice will be inoculated in the left maxillary vestibule with MOC-2-E6E7 cells (30,000 cells in 30 μl volume). Animals will be monitored using a body condition scoring system to ensure they maintain a healthy weight and show no obvious signs of distress. At Day 14 post-tumor inoculation, STINGel (20 jug CDN in 30 μl of MDP hydrogel) or controls (as above) are injected into the oral tumor site. Animal studies will be done in triplicate, independent experiments for significance. Between-group differences in flow cytometric data will be statistically evaluated with one-way ANOVA and post-hoc analysis using Tukey's method. Differences between groups will be considered significant if p<0.05. In efficacy studies, Kaplan-Meier survival curves will be compared using the log-rank/Mantel-Cox test and tumor growth curves will be analyzed using the Koziol method (Koziol et al., 1981; 1982).

[2] = CDN drug release kinetics from hydrogels (UV absorbance at 259 nm); format: physicochemical; details: for CDN release compared to collagen (FIG. 5B): 30 μL gels, 910 μM CDN, under 200 μL HBSS, 24 h; for release profile of gels (FIG. 3A): CDN release, preliminary data
Protocol: CDN release kinetics. 30 μL CDN-loaded gel aliquots are deposited into 96 well plates with 200 μL of buffer added to the top of the gels at time point t=0. For all kinetics experiments, a Thermo Scientific Nanodrop 2000C Spectrophotometer is used to measure UV absorbance at 259 nm, the characteristic wavelength of maximum absorbance for the adenine nucleobases present in the CDN. See FIG. 1A for an example of preliminary release kinetics data.
CDN drug release kinetics. To study the kinetics of CDN release from STINGel vs. collagen gel, 30 μL CDN-loaded gel aliquots were deposited into Falcon® 96 well flat bottom polystyrene plates (Becton Dickinson Labware, Franklin Lakes, NJ). For each experiment, cylindrical pucks of the 30 μL gel aliquots were created in each well, allowing the pipetted gels to shear recover for at least 5 mM before adding 200 μL of buffer (1×HBSS for STINGel, lx DPBS for collagen, according to gelation requirements) to the top of the gels at what was defined as t=0 for the start of kinetics experiments. The buffer height was approximately 2.5 mm, the gel thickness approximately 0.5 mm, and the gel's solvent exposed surface area approximately 12.6 mm^2.
A Thermo Scientific Nanodrop 2000C Spectrophotometer was used to measure UV absorbance at 259 nm, the characteristic wavelength of maximum absorbance for the CDN's adenine nucleobases. An extinction coefficient of 24,000 M^−1 cm^−1 at 259 nm was used. Absorbance measurements were taken by removal of 1 μL aliquots from the surface of the buffers, measuring the increase in absorbance over time. Release of CDN was measured over the course of the first 24 hours and converted to total percent released, with additional measurements also made at 48 and 72 hours to confirm that the samples had reached equilibrium.

[3] = system: CD45+/CD11b+/CD11c+ dendritic cells; assay: Flow cytometric analysis of implant infiltration; format: in vivo, mice; details: for recruitment of immune cells to the hydrogel in vivo: subcutaneous flank of mice, within 3 days
Protocol: Flow cytometric analysis of implant infiltration. Implanted gels are harvested from mice, digested and processed into single cell suspension. Cells are incubated with blocking antibody, followed by addition of antibodies to create three panels: myeloid cells (CD45, Gr-1, Ly-6C, CD11b, F4/80), lymphoid cells (CD45, NK-1.1, CD11b, CD3e, CD8a, CD4, CD19) and dendritic cells (CD45, CD8a, CD11b, CD11c, PDCA-1 and CD103). For each time point five mice with two hydrogel boluses are assessed for an n of 10.

[4] = In vivo subcutaneous hydrogel implants, histology (Masson's trichrome, H&E); details: 910 μM CDN where loaded
Protocol: In vivo subcutaneous implants. 200 μL subcutaneous injections are made in two separate 1-inch spaced sites on the dorsal flank. At tested time points mice are euthanized and the dorsal skin around the entire implant is removed, washed with PBS, and fixed in formalin for 24 hours prior to tissue processing (Wellings & Atherton, 1997; Guy & Fields, 1997). Details are provided in the Vertebrate Animal section. Tissue is processed to paraffin blocks, sectioned at 7 μm, deparaffinized and stained for cellular infiltrate using hematoxylin and eosin (H&E) and Masson's Trichrome. Here, and elsewhere, male and female populations will be assessed combined as well as separately to determine if sexual dichotomy exists in the biomaterial interaction and regenerative response.
Subcutaneous experiments and histology. Male/female mice (C57BL/6 strain) of age 8-12 weeks were obtained for subcutaneous experiments, which were conducted with Rice IACUC approval and according to NIH guidelines. Mice were injected with 40 μL CDN-loaded hydrogel (910 μM CDN) or 100 μL unloaded hydrogel in each of four separate sites in the subcutaneous space of the dorsal flank. At days 3 and 7 the mice were euthanized and the dorsal skin around the entire implant was removed, fixed overnight in 10% neutral buffered formalin, processed and paraffin embedded by the Baylor College of Medicine Pathology Core, and finally sectioned at 5 μm thickness for Masson's trichrome staining and hematoxylin and eosin (H&E) staining (FIGS. 14A-F and 16A-F).

[5] = 30 μL gels loaded with 910 μM CDN under 200 μL buffer

Compound: Nc1ncnc2c1ncn2[C@@H]1O[C@@H]2COP(O)(=S)O[C@@H]3C(O)[C@@H](COP(O)(=S)O[C@H]2[C@H]1O)O[C@H]3n1cnc2c(N)ncnc21 (stereo partly drawn) [CDN, dithio-(RP,RP)-[cyclic[A(2′,5′)pA(3′,5′)p]]]
- mice surviving until the endpoint of the study (MOC2-E6E7 tumors; 140 days post-tumor cell inoculation, single injection day 3, 20 μg CDN in 30 μL, n=10): 10%
- effect on tumor growth (MOC2-E6E7 tumors; single injection day 3 post inoculation): ineffective in preventing tumor growth
- efficacy [1]: completely ineffective
- percent cell viability per mm3 of hydrogel vs no CDN (MOC2-E6E7 cells; 5 μM CDN): equivalent
- percent cell viability per mm3 of hydrogel vs no CDN (MOC2-E6E7 cells; 57 μM CDN): equivalent
- percent cell viability per mm3 of hydrogel vs no CDN (MOC2-E6E7 cells; 114 μM CDN): equivalent
- percent cell viability per mm3 of hydrogel (MOC2-E6E7 cells; 228 μM CDN): reduced cell viability
- percent cell viability per mm3 of hydrogel (MOC2-E6E7 cells; 455 μM CDN): no cell viability
- percent cell viability per mm3 of hydrogel (MOC2-E6E7 cells; 910 μM CDN): no cell viability
- max tolerable dose cells can experience in their local environment (MOC2-E6E7 cells; without the massive cell death observed at 455 μM and above): 228 µM
- tumor rejection (MOC2 tumors): unsuccessful MOC2 tumor rejection
- efficacy / tumor rejection (MOC1 tumors): only to a subset of MOC1 tumor rejection
- efficacy / tumor rejection (MOC1 tumors; listed as CDN alone): minimal efficacy
- mortality before day 60 (MOC-2-E6E7 tumors): 100%

Compound: E2(SL)6E2 (SEQ ID NO: 3) (EESLSLSLSLSLSLEE) [additional multidomain peptide hydrogel with glutamate termini]
- CDN release compared to collagen (FIG. 5B) [2]: better (slower) release compared to collagen
- release profile of gels (FIG. 3A) [2]: intermediate release rates

Compound: K2(SL)6K2 (SEQ ID NO: 1) (Ac-KKSLSLSLSLSLSLKK-NH2) [MDP gel, self-assembling multidomain peptide hydrogel, acetylated N-terminus and C-terminal amide]
- mice maintaining tumor clearance and reaching reinoculation point (MOC2-E6E7 tumors; day 105 after initial inoculation, n=10 per group): No mice
- decrease in release rate compared to collagen control gels, factor [2, 5]: 8
- maximum release of loaded CDN (plateau/equilibrium) [2, 5]: approximately 68%
- release rate in the initial linear release phase [2, 5]: 1.0 nmol CDN/hour
- time of CDN release until equilibrium with surrounding buffer [2, 5]: 14 to 15 h
- release profile of gels (FIG. 3A) [2]: intermediate release rates
- cytocompatibility of unloaded hydrogel (MOC2-E6E7 cells; listed as Lys-MDP): substantial MOC-2-E6E7 proliferation (green cells) & minimal cell death
- cytocompatibility of unloaded hydrogel (MOC2-E6E7 cells; listed as MDP hydrogel): not intrinsically toxic
- cytocompatibility of unloaded hydrogel (MOC2-E6E7 cells; listed as unloaded MDP gel): fully biocompatible
- cytocompatibility of unloaded hydrogel (MOC2-E6E7 cells; listed as unloaded MDP hydrogel): cells are able to survive and proliferate within the 3-D hydrogel matrix
- recruitment of immune cells to the hydrogel in vivo ([3]; listed as Lys-MDP): substantial population
- recruitment of immune cells to the hydrogel in vivo ([3]; listed as MDP hydrogel): robust recruitment of immunocytes
- CD45+/CD11b+/CD11c+ dendritic cells ([3]; three days after subcutaneous injection, un-loaded): 13.5%
- mortality before day 60 (MOC-2-E6E7 tumors): 100%
- cellular infiltration of implant ([4]; 3 days post subcutaneous injection, listed as MDP control): even infiltration of cells
- cellular infiltration of implant ([4]; 3 days post subcutaneous injection, listed as MDP unloaded control): even infiltration of cells
- cellular infiltration of implant ([4]; 3 days post subcutaneous injection, listed as unloaded MDP): Uniform cellular infiltration
- cellular infiltration of implant ([4]; 7 days post subcutaneous injection): even infiltration of cells

Compound: R2(SL)6R2 (SEQ ID NO: 4) (RRSLSLSLSLSLSLRR) [additional multidomain peptide hydrogel with arginine termini]
- CDN release compared to collagen (FIG. 5B) [2]: better (slower) release compared to collagen; also recorded: the best of the group
- release profile of gels (FIG. 3A) [2]: slowest, most prolonged release
